Test results: patent US12559506B2, “Indazole based compounds and associated methods of use” (Arvinas Operations, Inc., priority 2021, dated 2026)
Read-outs that look alike come from different tables or passages of the source.

Molecular target: T1, LRRK2 (endogenous, HiBit tagged) (Homo sapiens, UniProt Q5S007)
T1 construct: endogenous in cells; host or cells: HEK293 cells with HiBit knock-in at the endogenous LRRK2 locus, stably expressing firefly luciferase
Experiment: Endogenous LRRK2 degradation assay, endogenous gene C-terminally HiBit-tagged in HEK293 cells (Nano-Glo Dual Luciferase)
Type: cell-based
Settings: endogenous HiBit-tagged LRRK2 in HEK293 cells
Method in brief: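 LRRK2-HiBit quantified via Nano-Glo Dual Luciferase in HEK293 knock-in cells co-expressing firefly luciferase, after 24 h exposure to compound (1 μM final top, 1:3, 11 points). Values normalised to DMSO median per plate and curve-fitted; Alamar Blue viability run alongside.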

[1] = 24 hours treatment, read-out: Endogenous WT DC50
[2] = 24 hours treatment, read-out: Endogenous WT Dmax
[3] = 24 hours treatment, read-out: **Endogenous WT Dmax (%)
[4] = 24 hours treatment, read-out: *Endogenous WT DC50

T1 sequence (Q5S007 whole entry): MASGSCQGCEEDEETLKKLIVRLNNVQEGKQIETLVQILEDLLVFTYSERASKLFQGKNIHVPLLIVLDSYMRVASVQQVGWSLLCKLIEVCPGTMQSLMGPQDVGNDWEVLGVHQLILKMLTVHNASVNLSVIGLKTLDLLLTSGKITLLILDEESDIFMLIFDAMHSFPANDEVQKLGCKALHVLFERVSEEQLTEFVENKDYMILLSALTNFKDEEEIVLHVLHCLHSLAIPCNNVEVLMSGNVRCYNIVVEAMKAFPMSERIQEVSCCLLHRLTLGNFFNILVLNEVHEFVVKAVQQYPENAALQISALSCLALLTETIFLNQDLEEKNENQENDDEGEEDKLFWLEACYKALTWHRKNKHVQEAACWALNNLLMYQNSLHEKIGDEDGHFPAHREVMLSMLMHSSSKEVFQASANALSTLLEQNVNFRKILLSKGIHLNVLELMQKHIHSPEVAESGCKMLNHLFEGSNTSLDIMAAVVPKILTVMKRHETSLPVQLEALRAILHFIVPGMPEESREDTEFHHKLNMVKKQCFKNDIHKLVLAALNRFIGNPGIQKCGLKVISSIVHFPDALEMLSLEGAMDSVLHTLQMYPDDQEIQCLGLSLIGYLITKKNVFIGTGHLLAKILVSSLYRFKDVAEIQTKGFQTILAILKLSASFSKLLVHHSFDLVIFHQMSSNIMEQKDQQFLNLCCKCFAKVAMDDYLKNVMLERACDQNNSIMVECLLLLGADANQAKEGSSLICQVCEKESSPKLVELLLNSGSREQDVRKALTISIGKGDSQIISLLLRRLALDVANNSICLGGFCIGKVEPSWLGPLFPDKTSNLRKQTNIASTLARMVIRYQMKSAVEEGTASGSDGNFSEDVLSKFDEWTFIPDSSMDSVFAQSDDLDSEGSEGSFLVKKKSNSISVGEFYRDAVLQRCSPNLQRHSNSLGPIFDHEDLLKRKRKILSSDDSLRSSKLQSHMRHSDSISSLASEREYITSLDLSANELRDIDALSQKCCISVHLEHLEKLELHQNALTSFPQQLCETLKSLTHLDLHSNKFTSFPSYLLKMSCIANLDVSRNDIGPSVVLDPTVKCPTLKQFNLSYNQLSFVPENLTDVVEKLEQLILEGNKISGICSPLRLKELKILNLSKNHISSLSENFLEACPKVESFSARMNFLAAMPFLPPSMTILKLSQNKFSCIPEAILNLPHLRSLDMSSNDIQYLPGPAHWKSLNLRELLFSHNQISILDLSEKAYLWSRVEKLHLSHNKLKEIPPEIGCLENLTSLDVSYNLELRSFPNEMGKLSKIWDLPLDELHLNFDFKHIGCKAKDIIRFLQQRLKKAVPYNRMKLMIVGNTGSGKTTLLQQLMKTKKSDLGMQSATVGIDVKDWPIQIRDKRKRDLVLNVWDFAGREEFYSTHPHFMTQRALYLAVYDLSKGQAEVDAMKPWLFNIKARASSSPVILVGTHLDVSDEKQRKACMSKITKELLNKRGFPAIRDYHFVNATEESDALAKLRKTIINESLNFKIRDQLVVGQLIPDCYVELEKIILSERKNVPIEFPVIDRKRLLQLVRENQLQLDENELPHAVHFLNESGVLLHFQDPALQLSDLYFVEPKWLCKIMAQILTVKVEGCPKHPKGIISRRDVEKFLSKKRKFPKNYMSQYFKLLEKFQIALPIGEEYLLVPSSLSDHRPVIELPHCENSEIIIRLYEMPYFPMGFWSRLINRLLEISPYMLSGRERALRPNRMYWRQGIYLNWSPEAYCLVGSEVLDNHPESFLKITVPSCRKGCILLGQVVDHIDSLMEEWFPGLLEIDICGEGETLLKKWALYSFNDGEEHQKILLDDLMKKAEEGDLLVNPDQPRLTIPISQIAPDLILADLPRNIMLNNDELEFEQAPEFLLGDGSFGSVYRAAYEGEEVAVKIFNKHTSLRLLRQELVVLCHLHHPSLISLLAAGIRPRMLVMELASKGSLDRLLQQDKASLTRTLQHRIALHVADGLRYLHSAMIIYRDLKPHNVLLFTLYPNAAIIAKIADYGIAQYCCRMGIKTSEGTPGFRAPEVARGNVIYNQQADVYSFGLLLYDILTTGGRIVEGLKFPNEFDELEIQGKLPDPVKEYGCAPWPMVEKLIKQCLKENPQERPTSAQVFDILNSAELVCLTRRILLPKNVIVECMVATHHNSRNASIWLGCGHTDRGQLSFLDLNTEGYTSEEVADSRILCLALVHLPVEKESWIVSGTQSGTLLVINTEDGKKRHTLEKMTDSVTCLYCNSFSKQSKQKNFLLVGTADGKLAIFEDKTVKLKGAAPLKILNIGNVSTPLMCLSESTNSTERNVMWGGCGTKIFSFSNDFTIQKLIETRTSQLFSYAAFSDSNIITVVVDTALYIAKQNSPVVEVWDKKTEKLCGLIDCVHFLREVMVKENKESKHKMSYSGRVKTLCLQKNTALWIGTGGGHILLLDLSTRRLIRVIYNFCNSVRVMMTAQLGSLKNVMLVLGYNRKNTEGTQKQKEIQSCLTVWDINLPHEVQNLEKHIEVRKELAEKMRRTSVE

SMILES: CC1(Oc2ccc3[nH]nc(-c4cc(N5CCC(O[C@H]6CC[C@H](CN7CCN(c8ccc9c(c8F)CN(C8CCC(=O)NC8=O)C9=O)CC7(C)C)CC6)CC5)ncn4)c3c2)CC1 (stereo partly shown) [Compound 361, 3-[5-(3,3-dimethyl-4-{[(1r,4r)-4-[(1-{6-[5-(1-methylcyclopropoxy)-1H-indazol-3-yl]pyrimidin-4-yl}piperidin-4-yl)oxy]cyclohexyl]methyl}piperazin-1-yl)-4-fluoro-1-oxo-2,3-dihydro-1H-isoindol-2-yl]piperidine-2,6-dione]
- DC50 [1]: < 10 nM
- Dmax [2]: 50 to 70%

SMILES: COc1c(N2CCN(CC3(F)CCN(CC4CCN(c5cc(-c6n[nH]c7cnc(OC8(C)CC8)cc67)ncn5)CC4)CC3)CC2)ccc2c1CN(C1CCC(=O)NC1=O)C2=O (stereo not shown) [Compound 369, 3-{5-[4-({4-fluoro-1-[(1-{6-[5-(1-methylcyclopropoxy)-1H-pyrazolo[3,4-c]pyridin-3-yl]pyrimidin-4-yl}piperidin-4-yl)methyl]piperidin-4-yl}methyl)piperazin-1-yl]-4-methoxy-1-oxo-2,3-dihydro-1H-isoindol-2-yl}piperidine-2,6-dione]
- DC50 [1]: < 10 nM
- Dmax [2]: 50 to 70%

SMILES: COc1c(N2CCC(CN3CCN(CC4CCN(c5cc(-c6n[nH]c7ccc(OC8(C)CC8)cc67)ncn5)CC4)CC3(C)C)CC2)ccc2c1CN(C1CCC(=O)NC1=O)C2=O (stereo not shown) [Compound 262, 3-{5-[4-({2,2-dimethyl-4-[(1-{6-[5-(1-methylcyclopropoxy)-1H-indazol-3-yl]pyrimidin-4-yl}piperidin-4-yl)methyl]piperazin-1-yl}methyl)piperidin-1-yl]-4-methoxy-1-oxo-2,3-dihydro-1H-isoindol-2-yl}piperidine-2,6-dione]
- Dmax [3]: 50 to 70%
- DC50 [4]: < 10 nM

SMILES: COc1c(N2CCC(CN3CCN(CC4CCN(c5cc(-c6n[nH]c7cnc(OC8(C)CC8)cc67)ncn5)CC4)C[C@H]3C)CC2)ccc2c1CN(C1CCC(=O)NC1=O)C2=O (stereo partly drawn) [Compound 283, 3-[4-methoxy-5-(4-{[(2R)-2-methyl-4-[(1-{6-[5-(1-methylcyclopropoxy)-1H-pyrazolo[3,4-c]pyridin-3-yl]pyrimidin-4-yl}piperidin-4-yl)methyl]piperazin-1-yl]methyl}piperidin-1-yl)-1-oxo-2,3-dihydro-1H-isoindol-2-yl]piperidine-2,6-dione]
- Dmax [3]: ≥ 70%
- DC50 [4]: < 10 nM

SMILES: CC1(Oc2ccc3[nH]nc(-c4cc(N5CCC(CN6C7CC6CN(CC6CCN(c8ccc9c(c8F)CN(C8CCC(=O)NC8=O)C9=O)CC6)C7)CC5)ncn4)c3c2)CC1 (stereo not shown) [Compound 237, 3-{4-fluoro-5-[4-({6-[(1-{6-[5-(1-methylcyclopropoxy)-1H-indazol-3-yl]pyrimidin-4-yl}piperidin-4-yl)methyl]-3,6-diazabicyclo[3.1.1]heptan-3-yl}methyl)piperidin-1-yl]-1-oxo-2,3-dihydro-1H-isoindol-2-yl}piperidine-2,6-dione]
- DC50 [1]: < 10 nM
- Dmax [2]: ≥ 70%

SMILES: COc1c(N2CCC(CN3CCN(CC4CCN(c5cc(-c6n[nH]c7ccc(OC8(C)CC8)cc67)ncn5)CC4)C[C@H]3C)CC2)ccc2c1CN(C1CCC(=O)NC1=O)C2=O (stereo partly drawn) [Compound 285, 3-[4-methoxy-5-(4-{[(2R)-2-methyl-4-[(1-{6-[5-(1-methylcyclopropoxy)-1H-indazol-3-yl]pyrimidin-4-yl}piperidin-4-yl)methyl]piperazin-1-yl]methyl}piperidin-1-yl)-1-oxo-2,3-dihydro-1H-isoindol-2-yl]piperidine-2,6-dione]
- Dmax [3]: ≥ 70%
- DC50 [4]: < 10 nM

SMILES: CC1(Oc2ccc3n[nH]c(-c4cc(N5CCC(CN6CC(F)(CC7CCN(c8ccc9c(c8F)CN(C8CCC(=O)NC8=O)C9=O)CC7)C6)CC5)ncn4)c3c2)CC1 (stereo not shown) [Compound 337, 3-{4-fluoro-5-[4-({3-fluoro-1-[(1-{6-[5-(1-methylcyclopropoxy)-2H-indazol-3-yl]pyrimidin-4-yl}piperidin-4-yl)methyl]azetidin-3-yl}methyl)piperidin-1-yl]-1-oxo-2,3-dihydro-1H-isoindol-2-yl}piperidine-2,6-dione]
- Dmax [3]: ≥ 70%
- DC50 [4]: < 10 nM

SMILES: COc1c(N2CCC(CN3CCN(CC4CCN(c5cc(-c6n[nH]c7ccc(OC8(C)CC8)cc67)ncn5)CC4)C[C@@H]3C)CC2)ccc2c1CN(C1CCC(=O)NC1=O)C2=O (stereo partly drawn) [Compound 264, 3-[4-methoxy-5-(4-{[(2S)-2-methyl-4-[(1-{6-[5-(1-methylcyclopropoxy)-1H-indazol-3-yl]pyrimidin-4-yl}piperidin-4-yl)methyl]piperazin-1-yl]methyl}piperidin-1-yl)-1-oxo-2,3-dihydro-1H-isoindol-2-yl]piperidine-2,6-dione]
- Dmax [3]: ≥ 70%
- DC50 [4]: < 10 nM

SMILES: COc1cc(N2CCC(CN3CCN(CC4CCN(c5cc(-c6n[nH]c7ccc(OC8(C)CC8)cc67)ncn5)CC4)CC3)CC2)cc2c1C(=O)N(C1CCC(=O)NC1=O)C2 (stereo not shown) [Compound 215, 3-[7-methoxy-5-[4-[[4-[[1-[6-[5-(1-methylcyclopropoxy)-1H-indazol-3-yl]pyrimidin-4-yl]-4-piperidyl]methyl]piperazin-1-yl]methyl]-1-piperidyl]-1-oxo-isoindolin-2-yl]piperidine-2,6-dione]
- DC50 [1]: < 10 nM
- Dmax [2]: ≥ 70%

SMILES: COc1c(N2CCC(O[C@H]3CC[C@H](CN4CCN(c5cc(-c6n[nH]c7cnc(OC8(C)CC8)cc67)ncn5)CC4)CC3)CC2)ccc2c1CN(C1CCC(=O)NC1=O)C2=O (stereo partly shown) [Compound 273, 3-[4-methoxy-1-oxo-5-(4-{[(1r,4r)-4-[(4-{6-[5-(1-methylcyclopropoxy)-1H-pyrazolo[3,4-c]pyridin-3-yl]pyrimidin-4-yl}piperazin-1-yl)methyl]cyclohexyl]oxy}piperidin-1-yl)-2,3-dihydro-1H-isoindol-2-yl]piperidine-2,6-dione]
- Dmax [3]: < 50%
- DC50 [4]: < 10 nM

SMILES: CC1(Oc2ccc3[nH]nc(-c4cc(N5CCC(CN6CC7CC(C6)N7CC6CCN(c7ccc8c(c7F)CN(C7CCC(=O)NC7=O)C8=O)CC6)CC5)ncn4)c3c2)CC1 (stereo not shown) [Compound 225, 3-{4-fluoro-5-[4-({3-[(1-{6-[5-(1-methylcyclopropoxy)-1H-indazol-3-yl]pyrimidin-4-yl}piperidin-4-yl)methyl]-3,6-diazabicyclo[3.1.1]heptan-6-yl}methyl)piperidin-1-yl]-1-oxo-2,3-dihydro-1H-isoindol-2-yl}piperidine-2,6-dione]
- DC50 [1]: < 10 nM
- Dmax [2]: 50 to 70%

SMILES: CC1(Oc2ccc3[nH]nc(-c4cc(N5CCC(CC6(F)CCN(CC7CCN(c8ccc9c(c8F)CN(C8CCC(=O)NC8=O)C9=O)CC7)CC6)CC5)ncn4)c3c2)CC1 (stereo not shown) [Compound 206, 3-[4-fluoro-5-[4-[[4-fluoro-4-[[1-[6-[5-(1-methylcyclopropoxy)-1H-indazol-3-yl]pyrimidin-4-yl]-4-piperidyl]methyl]-1-piperidyl]methyl]-1-piperidyl]-1-oxo-isoindolin-2-yl]piperidine-2,6-dione]
- DC50 [1]: < 10 nM
- Dmax [2]: ≥ 70%

SMILES: CC1(Oc2cc3c(-c4cc(N5CCC(O[C@H]6C[C@H](OC7CCN(c8ccc9c(c8F)CN(C8CCC(=O)NC8=O)C9=O)CC7)C6)CC5)ncn4)n[nH]c3cn2)CC1 (stereo partly shown) [Compound 218, 3-[4-fluoro-5-[4-[3-[[1-[6-[5-(1-methylcyclopropoxy)-1H-pyrazolo[3,4-c]pyridin-3-yl]pyrimidin-4-yl]-4-piperidyl]oxy]cyclobutoxy]-1-piperidyl]-1-oxo-isoindolin-2-yl]piperidine-2,6-dione]
- DC50 [1]: < 10 nM
- Dmax [2]: 50 to 70%

SMILES: CC1(Oc2ccc3n[nH]c(-c4cc(N5CCC(CO[C@H]6CC[C@H](CN7CCN(c8ccc9c(c8)C(=O)N(C8CCC(=O)NC8=O)C9=O)CC7)CC6)CC5)ncn4)c3c2)CC1 (stereo partly shown) [Compound 60, 2-(2,6-dioxo-3-piperidyl)-5-[4-[[4-[[1-[6-[5-(1-methylcyclopropoxy)-2H-indazol-3-yl]pyrimidin-4-yl]-4-piperidyl]methoxy]cyclohexyl]methyl]piperazin-1-yl]isoindoline-1,3-dione]
- Dmax (24 hours, read-out: **Endogenous WT Dmax (%)): ≥ 70%
- DC50 (24 hours, read-out: *Endogenous WT DC50): < 10 nM

SMILES: CC1(Oc2ccc3n[nH]c(-c4cc(N5CCC(CN6CC(F)(CN7CCN(c8ccc9c(c8F)CN(C8CCC(=O)NC8=O)C9=O)CC7)C6)CC5)ncn4)c3c2)CC1 (stereo not shown) [Compound 301, 3-{4-fluoro-5-[4-({3-fluoro-1-[(1-{6-[5-(1-methylcyclopropoxy)-2H-indazol-3-yl]pyrimidin-4-yl}piperidin-4-yl)methyl]azetidin-3-yl}methyl)piperazin-1-yl]-1-oxo-2,3-dihydro-1H-isoindol-2-yl}piperidine-2,6-dione]
- Dmax [3]: ≥ 70%
- DC50 [4]: < 10 nM

SMILES: CC1(Oc2ccc3[nH]nc(-c4cc(N5CCC(OCCN6CCC7(CN(c8ccc9c(c8F)CN(C8CCC(=O)NC8=O)C9=O)C7)C(F)(F)C6)CC5)ncn4)c3c2)CC1 (stereo not shown) [Compound 362, 3-[5-(5,5-difluoro-7-{2-[(1-{6-[5-(1-methylcyclopropoxy)-1H-indazol-3-yl]pyrimidin-4-yl}piperidin-4-yl)oxy]ethyl}-2,7-diazaspiro[3.5]nonan-2-yl)-4-fluoro-1-oxo-2,3-dihydro-1H-isoindol-2-yl]piperidine-2,6-dione]
- DC50 [1]: < 10 nM
- Dmax [2]: 50 to 70%

SMILES: COc1c(N2CCC(O[C@H]3CC[C@H](CN4CCN(c5cc(-c6n[nH]c7cc(F)c(OC8(C)CC8)cc67)ncn5)CC4)CC3)CC2)ccc2c1CN(C1CCC(=O)NC1=O)C2=O (stereo partly shown) [Compound 360, 3-[4-methoxy-1-oxo-5-(4-{[(1r,4r)-4-[(4-{6-[6-fluoro-5-(1-methylcyclopropoxy)-1H-indazol-3-yl]pyrimidin-4-yl}piperazin-1-yl)methyl]cyclohexyl]oxy}piperidin-1-yl)-2,3-dihydro-1H-isoindol-2-yl]piperidine-2,6-dione]
- DC50 [1]: < 10 nM
- Dmax [2]: 50 to 70%
